28 compounds from US9796706B2, “Inhibitors of Jun N-terminal kinase” (IMAGO PHARMACEUTICALS, INC., priority 2009, dated 2017) can be followed below.

Molecules are shown by their SMILES. pIC50: −log10 of the molar value.

Common to all, as to type: biochemical
What all share (conditions): procedures of Example 14 (TR-FRET)

One assay has as its target JNK2 (Homo sapiens (Human), UniProt P45984). Nature of the assay: JNK2 TR-FRET kinase assay (Example 14). The procedure, abridged:
(§1)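 Two TR-FRET formats were used for each JNK isoform. In the direct one, preactivated aJNK phosphorylated EPIW-1 at about 1 mM final ATP (RT, 15 min). Both were EDTA-quenched and read by HTRF.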
(In general: In TR-FRET formats the signal depends on donor and acceptor labels being close together.)

The target in another assay is JNK3 (Homo sapiens (Human), UniProt P53779). Nature of the assay: JNK3 TR-FRET kinase assay (Example 14). In outline:
as §1

The next assay concerns the target JNK1 (Homo sapiens (Human), UniProt P45983). Briefly: JNK1 TR-FRET kinase assay (Example 14). In outline: as §1

As usually defined, the pIC50 is the negative decadic logarithm of the IC50, by convention in mol/L. A higher pIC50 goes with a small IC50.

JNK2, sequence (P45984 whole entry, species assumed, canonical isoform): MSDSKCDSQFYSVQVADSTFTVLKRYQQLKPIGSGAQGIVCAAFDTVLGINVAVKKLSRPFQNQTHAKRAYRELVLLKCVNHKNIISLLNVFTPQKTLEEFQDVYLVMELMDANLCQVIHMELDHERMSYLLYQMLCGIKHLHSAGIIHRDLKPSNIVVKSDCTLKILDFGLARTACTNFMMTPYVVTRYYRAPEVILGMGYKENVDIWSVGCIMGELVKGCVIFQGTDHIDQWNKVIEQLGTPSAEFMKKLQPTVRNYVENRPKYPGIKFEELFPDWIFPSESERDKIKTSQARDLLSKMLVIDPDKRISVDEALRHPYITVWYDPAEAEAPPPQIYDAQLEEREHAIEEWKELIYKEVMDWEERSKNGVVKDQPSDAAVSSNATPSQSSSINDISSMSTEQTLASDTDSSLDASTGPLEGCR
JNK3, sequence (P53779 whole entry, species assumed): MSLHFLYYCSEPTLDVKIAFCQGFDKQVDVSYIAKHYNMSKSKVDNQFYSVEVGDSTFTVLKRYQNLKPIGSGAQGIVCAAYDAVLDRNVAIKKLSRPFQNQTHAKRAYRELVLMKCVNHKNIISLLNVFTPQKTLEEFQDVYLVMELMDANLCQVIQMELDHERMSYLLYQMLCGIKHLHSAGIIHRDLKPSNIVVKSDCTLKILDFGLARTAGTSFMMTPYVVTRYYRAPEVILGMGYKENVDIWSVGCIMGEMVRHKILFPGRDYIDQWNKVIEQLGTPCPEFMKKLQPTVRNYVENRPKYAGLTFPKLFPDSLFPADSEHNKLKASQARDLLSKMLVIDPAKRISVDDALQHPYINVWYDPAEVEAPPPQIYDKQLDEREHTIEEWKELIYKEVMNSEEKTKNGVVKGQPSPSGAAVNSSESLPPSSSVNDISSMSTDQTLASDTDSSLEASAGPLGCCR
JNK1, sequence (P45983 other isoform, or with tags, fused parts or gaps isoform P45983-2, species assumed): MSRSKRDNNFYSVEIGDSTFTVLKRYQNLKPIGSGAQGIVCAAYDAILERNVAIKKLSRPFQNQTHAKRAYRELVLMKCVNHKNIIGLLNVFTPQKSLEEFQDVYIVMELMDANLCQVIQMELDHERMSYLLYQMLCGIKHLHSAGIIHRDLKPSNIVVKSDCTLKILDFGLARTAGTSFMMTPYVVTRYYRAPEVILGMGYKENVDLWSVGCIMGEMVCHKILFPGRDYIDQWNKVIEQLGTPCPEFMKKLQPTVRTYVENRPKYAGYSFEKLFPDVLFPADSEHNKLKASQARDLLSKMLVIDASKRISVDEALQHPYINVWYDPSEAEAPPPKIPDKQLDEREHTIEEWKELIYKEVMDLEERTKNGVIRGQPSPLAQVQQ

On to `O=C(Cc1ccc2ccc(C(F)(F)F)nc2c1)Nc1scc(Br)c1-c1nc[nH]n1` [N-(4-bromo-3-(1H-1,2,4-triazol-3-yl)thiophen-2-yl)-2-(2-(trifluoromethyl)quinolin-7-yl)acetamide], for which the pIC50 against JNK2, at JNK3 and against JNK1 was 5.00 to 7.00 throughout.

Consider `O=C(Cc1cccc2ncc(C(F)(F)F)cc12)Nc1scc(Br)c1-c1nc[nH]n1` [N-(4-bromo-3-(1H-1,2,4-triazol-3-yl)thiophen-2-yl)-2-(3-(trifluoromethyl)quinolin-5-yl)acetamide], for which the negative logarithm of the IC50 (pIC50) against JNK2 was 5.00 to 7.00; on JNK3, greater than 7.00; against JNK1, greater than 7.00.

Consider `O=C(Cc1cccc2cc(C(F)(F)F)cnc12)Nc1scc(Br)c1-c1nc[nH]n1` [N-(4-bromo-3-(1H-1,2,4-triazol-3-yl)thiophen-2-yl)-2-(3-(trifluoromethyl)quinolin-8-yl)acetamide], for which the pIC50 at JNK2, against JNK3 and against JNK1 was 5.00 to 7.00 in each case.

Take `O=C(Cc1cccc2ncc(F)cc12)Nc1scc(Br)c1-c1nc[nH]n1` [N-(4-bromo-3-(1H-1,2,4-triazol-3-yl)thiophen-2-yl)-2-(3-fluoroquinolin-5-yl)acetamide]: the negative logarithm of the IC50 (pIC50) against JNK2, against JNK3 and against JNK1 was greater than 7.00 throughout.

For the compound `O=C(Cc1cccc2cc(F)cnc12)Nc1scc(Br)c1-c1nc[nH]n1` [N-(4-bromo-3-(1H-1,2,4-triazol-3-yl)thiophen-2-yl)-2-(3-fluoroquinolin-8-yl)acetamide], the figures for the negative logarithm of the IC50 (pIC50) against JNK2, against JNK3 and against JNK1 were 5.00 to 7.00, 5.00 to 7.00 and greater than 7.00, respectively.

`O=C(Cn1c(=O)ccc2ncccc21)Nc1scc(Br)c1-c1ncn[nH]1` [N-(4-bromo-3-(1H-1,2,4-triazol-5-yl)thiophen-2-yl)-2-(2-oxo-1,5-naphthyridin-1(2H)-yl)acetamide]: the pIC50 against JNK2, against JNK3 and at JNK1 was greater than 7.00 in each case.

For the compound `O=C(Cn1c(=O)ccc2cnccc21)Nc1scc(Br)c1-c1ncn[nH]1` [N-(4-bromo-3-(1H-1,2,4-triazol-5-yl)thiophen-2-yl)-2-(2-oxo-1,6-naphthyridin-1(2H)-yl)acetamide], the negative logarithm of the IC50 (pIC50) against JNK2, against JNK3 and against JNK1 was greater than 7.00 throughout.

Take `O=C(CN1C(=O)CCc2ncccc21)Nc1scc(Br)c1-c1ncn[nH]1` [N-(4-bromo-3-(1H-1,2,4-triazol-5-yl)thiophen-2-yl)-2-(2-oxo-3,4-dihydro-1,5-naphthyridin-1(2H)-yl)acetamide]: the pIC50 at JNK2, at JNK3 and on JNK1 was greater than 7.00 throughout.

As to `O=C(CN1C(=O)CCc2cnccc21)Nc1scc(Br)c1-c1ncn[nH]1` [N-(4-bromo-3-(1H-1,2,4-triazol-5-yl)thiophen-2-yl)-2-(2-oxo-3,4-dihydro-1,6-naphthyridin-1(2H)-yl)acetamide], the pIC50 on JNK2, on JNK3 and at JNK1 was greater than 7.00 each time.

With `O=C(CN1C(=O)CCc2ccccc21)Nc1scc(Br)c1-c1ncn[nH]1` [N-(4-bromo-3-(1H-1,2,4-triazol-5-yl)thiophen-2-yl)-2-(2-oxo-3,4-dihydroquinolin-1(2H)-yl)acetamide], the pIC50 on JNK2, against JNK3 and against JNK1 was greater than 7.00 throughout.

Turning to `O=C(Cn1c(=O)ccc2c(C(F)(F)F)cccc21)Nc1scc(Br)c1-c1ncn[nH]1` [N-(4-bromo-3-(1H-1,2,4-triazol-5-yl)thiophen-2-yl)-2-(2-oxo-5-(trifluoromethyl)quinolin-1(2H)-yl)acetamide], the pIC50 against JNK2 was 5.00 to 7.00; on JNK3 it was greater than 7.00; on JNK1, greater than 7.00.

Consider `O=C(Cn1c(=O)ccc2cc(OC(F)(F)F)ccc21)Nc1scc(Br)c1-c1ncn[nH]1` [N-(4-bromo-3-(1H-1,2,4-triazol-5-yl)thiophen-2-yl)-2-(2-oxo-6-(trifluoromethoxy)quinolin-1(2H)-yl)acetamide], for which the pIC50 on JNK2, against JNK3 and on JNK1 was greater than 7.00 each time.

As for `O=C(Cn1c(=O)ccc2nc(C(F)(F)F)ccc21)Nc1scc(Br)c1-c1ncn[nH]1` [N-(4-bromo-3-(1H-1,2,4-triazol-5-yl)thiophen-2-yl)-2-(2-oxo-6-(trifluoromethyl)-1,5-naphthyridin-1(2H)-yl)acetamide], the pIC50 at JNK2, against JNK3 and at JNK1 was greater than 7.00 each time.

Take `O=C(CN1C(=O)CCc2cc(C(F)(F)F)ccc21)Nc1scc(Br)c1-c1ncn[nH]1` [N-(4-bromo-3-(1H-1,2,4-triazol-5-yl)thiophen-2-yl)-2-(2-oxo-6-(trifluoromethyl)-3,4-dihydroquinolin-1(2H)-yl)acetamide]: the pIC50 at JNK2, on JNK3 and on JNK1 was greater than 7.00 in each case.

As to `O=C(Cn1c(=O)ccc2cc(C(F)(F)F)ccc21)Nc1scc(Br)c1-c1ncn[nH]1` [N-(4-bromo-3-(1H-1,2,4-triazol-5-yl)thiophen-2-yl)-2-(2-oxo-6-(trifluoromethyl)quinolin-1(2H)-yl)acetamide], the pIC50 against JNK2, on JNK3 and against JNK1 was greater than 7.00 in each case.

As for `O=C(Cn1c(=O)ccc2ccc(OC(F)(F)F)cc21)Nc1scc(Br)c1-c1ncn[nH]1` [N-(4-bromo-3-(1H-1,2,4-triazol-5-yl)thiophen-2-yl)-2-(2-oxo-7-(trifluoromethoxy)quinolin-1(2H)-yl)acetamide], the pIC50 against JNK2, against JNK3 and on JNK1 was greater than 7.00 throughout.

On to `O=C(Cn1c(=O)ccc2cnc(C(F)(F)F)cc21)Nc1scc(Br)c1-c1ncn[nH]1` [N-(4-bromo-3-(1H-1,2,4-triazol-5-yl)thiophen-2-yl)-2-(2-oxo-7-(trifluoromethyl)-1,6-naphthyridin-1(2H)-yl)acetamide], for which the pIC50 against JNK2, on JNK3 and against JNK1 was greater than 7.00 in each case.

Turning to `O=C(Cn1c(=O)ccc2ccc(C(F)(F)F)cc21)Nc1scc(Br)c1-c1ncn[nH]1` [N-(4-bromo-3-(1H-1,2,4-triazol-5-yl)thiophen-2-yl)-2-(2-oxo-7-(trifluoromethyl)quinolin-1(2H)-yl)acetamide], the negative logarithm of the IC50 (pIC50) at JNK2, on JNK3 and at JNK1 was greater than 7.00 throughout.

On to `O=C(Cn1c(=O)ccc2c(F)cccc21)Nc1scc(Br)c1-c1ncn[nH]1` [N-(4-bromo-3-(1H-1,2,4-triazol-5-yl)thiophen-2-yl)-2-(5-fluoro-2-oxoquinolin-1(2H)-yl)acetamide], for which the pIC50 against JNK2, on JNK3 and against JNK1 was greater than 7.00 in each case.

As for `O=C(Cn1c(=O)ccn2nc(C(F)(F)F)cc12)Nc1scc(Br)c1-c1ncn[nH]1` [N-(4-bromo-3-(1H-1,2,4-triazol-5-yl)thiophen-2-yl)-2-(5-oxo-2-(trifluoromethyl)pyrazolo[1,5-a]pyrimidin-4(5H)-yl)acetamide], the negative-log IC50 (pIC50) against JNK2, at JNK3 and against JNK1 was greater than 7.00 each time.

Take `O=C(Cn1c(=O)ccn2nccc12)Nc1scc(Br)c1-c1ncn[nH]1` [N-(4-bromo-3-(1H-1,2,4-triazol-5-yl)thiophen-2-yl)-2-(5-oxopyrazolo[1,5-a]pyrimidin-4(5H)-yl)acetamide]: the pIC50 against JNK2, against JNK3 and on JNK1 was greater than 7.00 each time.

On to `O=C(Cn1c(=O)ccc2cc(F)c(F)cc21)Nc1scc(Br)c1-c1ncn[nH]1` [N-(4-bromo-3-(1H-1,2,4-triazol-5-yl)thiophen-2-yl)-2-(6,7-difluoro-2-oxoquinolin-1(2H)-yl)acetamide], for which the negative logarithm of the IC50 (pIC50) against JNK2, against JNK3 and on JNK1 was greater than 7.00 each time.

Regarding `O=C(Cn1c(=O)ccc2cc(Cl)ccc21)Nc1scc(Br)c1-c1ncn[nH]1` [N-(4-bromo-3-(1H-1,2,4-triazol-5-yl)thiophen-2-yl)-2-(6-chloro-2-oxoquinolin-1(2H)-yl)acetamide], the pIC50 at JNK2, at JNK3 and at JNK1 was greater than 7.00 in each case.

Take `N#Cc1ccc2c(ccc(=O)n2CC(=O)Nc2scc(Br)c2-c2ncn[nH]2)c1` [N-(4-bromo-3-(1H-1,2,4-triazol-5-yl)thiophen-2-yl)-2-(6-cyano-2-oxoquinolin-1(2H)-yl)acetamide]: the negative logarithm of the IC50 (pIC50) at JNK2, against JNK3 and on JNK1 was greater than 7.00 each time.

Take `C#Cc1ccc2c(ccc(=O)n2CC(=O)Nc2scc(Br)c2-c2ncn[nH]2)c1` [N-(4-bromo-3-(1H-1,2,4-triazol-5-yl)thiophen-2-yl)-2-(6-ethynyl-2-oxoquinolin-1(2H)-yl)acetamide]: the negative logarithm of the IC50 (pIC50) at JNK2, at JNK3 and against JNK1 was greater than 7.00 throughout.

Regarding `O=C(CN1C(=O)CCc2cc(F)ccc21)Nc1scc(Br)c1-c1ncn[nH]1` [N-(4-bromo-3-(1H-1,2,4-triazol-5-yl)thiophen-2-yl)-2-(6-fluoro-2-oxo-3,4-dihydroquinolin-1(2H)-yl)acetamide], the pIC50 against JNK2, on JNK3 and against JNK1 was greater than 7.00 throughout.

Regarding `O=C(Cn1c(=O)ccc2cc(F)ccc21)Nc1scc(Br)c1-c1ncn[nH]1` [N-(4-bromo-3-(1H-1,2,4-triazol-5-yl)thiophen-2-yl)-2-(6-fluoro-2-oxoquinolin-1(2H)-yl)acetamide], the pIC50 against JNK2, against JNK3 and against JNK1 was greater than 7.00 throughout.

For the compound `O=C(Cc1c(F)ccc2ncccc12)Nc1scc(Br)c1-c1ncn[nH]1` [N-(4-bromo-3-(1H-1,2,4-triazol-5-yl)thiophen-2-yl)-2-(6-fluoroquinolin-5-yl)acetamide], the negative logarithm of the IC50 (pIC50) at JNK2, on JNK3 and against JNK1 was greater than 7.00 each time.
